In PMC5241873, “The clinically approved antiviral drug sofosbuvir inhibits Zika virus replication” (Scientific Reports, 2017):

Experiments:
[1] = tested on: T1, recombinant ZVRP (C-terminal portion); test: RdRp assay, labelled UTP incorporation on ZIKV RNA, ALPHA detection; format: biochemical, Zika virus; conditions: 0.4 mM each ATP, GTP, CTP and labelled UTP; 3 mM MgCl2; pH 7.3; 30 °C; 1 h
T1 construct: gene NS5; pET-41b+ BamHI/SacI, N-terminal GST tag, E. coli BL21; B3U3M3 is printed for the 3D model only

[2] = tested on: T2, ZIKV RNA polymerase (ZVRP), partially purified from ZIKV-infected BHK-21 cells; test: as above; format: biochemical, Zika virus; conditions: 0.4 mM each ATP, GTP, CTP and labelled UTP; 3 mM MgCl2; pH 7.3; 30 °C; 1 h; partially purified enzyme
T2 construct: gene NS5; mature NS5 from the genome polyprotein; native, partially purified from infected BHK-21 cells (100,000 x g supernatant, DEAE- and phospho-cellulose)

Row | Compound | IC50 [1] [nM] | IC50 [2] [nM]
1 | Cc1cn([C@H]2C[C@H](N=[N+]=[N-])[C@@H](COP(=O)(O)OP(=O)(O)OP(=O)(O)O)O2)c(=O)[nH]c1=O [AZT-TP, AZT triphosphate] | > 10000 | > 10000
2 | C[C@@]1(F)[C@H](O)[C@@H](COP(=O)(O)OP(=O)(O)OP(=O)(O)O)O[C@H]1n1ccc(=O)[nH]c1=O [STP, β-d-2′-deoxy-2′-α-fluoro-2′-β-C-methyluridine triphosphate] | 610 ± 80 | 380 ± 30
3 | NC(=O)c1ncn([C@@H]2O[C@H](COP(=O)(O)OP(=O)(O)OP(=O)(O)O)[C@@H](O)[C@H]2O)n1 [RTP, ribavirin triphosphate] | 620 ± 50 | 210 ± 60
